Test results: patent publication US20240024488A1, “COMPOUNDS AND USES THEREOF” (Foghorn Therapeutics Inc., priority 2020, published 2024)

Columns and labels:
[1] = biological target: T1, HiBit-BRG1 fusion protein (Homo sapiens, UniProt P51532); experiment: HiBiT-BRG1 cell-based degradation assay (Nano-Glo HiBiT Lytic Detection, 24 h); conditions: HeLa cell line expressing HiBit-BRG1 and LgBit; for Dmax: read-out: BRG1 HiBit Degradation Maximum (%); for DC50: read-out: BRMG1 HiBit Degradation IC50
T1 construct: expressed in transfected cells
T1 sequence (P51532 whole entry, the tested form may be a part): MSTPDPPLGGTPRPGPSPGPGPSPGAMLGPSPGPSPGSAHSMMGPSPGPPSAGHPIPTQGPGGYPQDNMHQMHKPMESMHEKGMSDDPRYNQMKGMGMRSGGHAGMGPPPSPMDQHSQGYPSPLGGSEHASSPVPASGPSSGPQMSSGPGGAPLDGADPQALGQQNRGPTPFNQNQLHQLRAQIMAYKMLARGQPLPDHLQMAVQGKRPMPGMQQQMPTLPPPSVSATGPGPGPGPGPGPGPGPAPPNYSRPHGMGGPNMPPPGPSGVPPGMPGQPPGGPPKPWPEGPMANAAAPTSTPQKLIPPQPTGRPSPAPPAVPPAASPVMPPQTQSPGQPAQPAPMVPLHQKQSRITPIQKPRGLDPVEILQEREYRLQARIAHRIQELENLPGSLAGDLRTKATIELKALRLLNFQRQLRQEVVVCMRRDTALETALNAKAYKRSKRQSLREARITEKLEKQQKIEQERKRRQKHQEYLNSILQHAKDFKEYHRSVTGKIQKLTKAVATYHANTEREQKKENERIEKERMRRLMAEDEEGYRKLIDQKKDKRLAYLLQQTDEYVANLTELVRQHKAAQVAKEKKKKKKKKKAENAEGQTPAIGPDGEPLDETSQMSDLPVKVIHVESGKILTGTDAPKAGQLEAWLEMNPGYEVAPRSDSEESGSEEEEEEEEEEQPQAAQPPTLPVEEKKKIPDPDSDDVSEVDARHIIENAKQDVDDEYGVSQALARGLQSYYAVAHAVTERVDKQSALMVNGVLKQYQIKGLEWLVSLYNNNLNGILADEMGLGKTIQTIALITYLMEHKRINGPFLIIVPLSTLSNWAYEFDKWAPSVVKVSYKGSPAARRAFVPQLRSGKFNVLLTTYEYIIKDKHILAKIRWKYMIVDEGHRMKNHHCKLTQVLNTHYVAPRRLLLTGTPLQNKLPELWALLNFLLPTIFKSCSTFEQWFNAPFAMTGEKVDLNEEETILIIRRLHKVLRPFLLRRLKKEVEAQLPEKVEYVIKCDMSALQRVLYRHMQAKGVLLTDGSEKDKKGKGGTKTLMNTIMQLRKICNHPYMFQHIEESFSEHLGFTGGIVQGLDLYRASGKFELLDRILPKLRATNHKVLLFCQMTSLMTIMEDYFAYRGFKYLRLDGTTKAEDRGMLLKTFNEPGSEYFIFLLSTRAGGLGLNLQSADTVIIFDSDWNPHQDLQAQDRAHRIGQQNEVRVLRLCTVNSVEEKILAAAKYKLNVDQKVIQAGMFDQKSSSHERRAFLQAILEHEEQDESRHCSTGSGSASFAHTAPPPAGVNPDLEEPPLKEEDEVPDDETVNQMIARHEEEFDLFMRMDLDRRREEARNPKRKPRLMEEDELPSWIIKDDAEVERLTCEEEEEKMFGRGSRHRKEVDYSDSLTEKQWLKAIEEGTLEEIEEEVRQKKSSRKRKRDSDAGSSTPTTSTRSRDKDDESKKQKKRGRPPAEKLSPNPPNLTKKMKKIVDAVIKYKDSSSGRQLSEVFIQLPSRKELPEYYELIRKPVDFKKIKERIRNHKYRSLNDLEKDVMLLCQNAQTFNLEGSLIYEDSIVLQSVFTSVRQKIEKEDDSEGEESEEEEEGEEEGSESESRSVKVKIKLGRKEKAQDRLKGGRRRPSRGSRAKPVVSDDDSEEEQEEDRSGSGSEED
How it was run: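 HeLa cells stably expressing HiBit-BRG1 plus LgBit; compound exposure 24 h; Nano-Glo HiBiT lytic luminescence; % degradation vs DMSO (0%) and 2 μM standard BRM/BRG1 degrader (100%).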

HiBit-BRM fusion protein = biological target: T2, HiBit-BRM fusion protein (Homo sapiens, UniProt P51531); experiment: HiBiT-BRM cell-based degradation assay (Nano-Glo HiBiT Lytic Detection, 24 h); conditions: HeLa cell line expressing HiBiT-BRM; for DC50: read-out: BRM HiBit Degradation IC50
T2 construct: expressed in transfected cells
T2 sequence (P51531 whole entry, the tested form may be a part): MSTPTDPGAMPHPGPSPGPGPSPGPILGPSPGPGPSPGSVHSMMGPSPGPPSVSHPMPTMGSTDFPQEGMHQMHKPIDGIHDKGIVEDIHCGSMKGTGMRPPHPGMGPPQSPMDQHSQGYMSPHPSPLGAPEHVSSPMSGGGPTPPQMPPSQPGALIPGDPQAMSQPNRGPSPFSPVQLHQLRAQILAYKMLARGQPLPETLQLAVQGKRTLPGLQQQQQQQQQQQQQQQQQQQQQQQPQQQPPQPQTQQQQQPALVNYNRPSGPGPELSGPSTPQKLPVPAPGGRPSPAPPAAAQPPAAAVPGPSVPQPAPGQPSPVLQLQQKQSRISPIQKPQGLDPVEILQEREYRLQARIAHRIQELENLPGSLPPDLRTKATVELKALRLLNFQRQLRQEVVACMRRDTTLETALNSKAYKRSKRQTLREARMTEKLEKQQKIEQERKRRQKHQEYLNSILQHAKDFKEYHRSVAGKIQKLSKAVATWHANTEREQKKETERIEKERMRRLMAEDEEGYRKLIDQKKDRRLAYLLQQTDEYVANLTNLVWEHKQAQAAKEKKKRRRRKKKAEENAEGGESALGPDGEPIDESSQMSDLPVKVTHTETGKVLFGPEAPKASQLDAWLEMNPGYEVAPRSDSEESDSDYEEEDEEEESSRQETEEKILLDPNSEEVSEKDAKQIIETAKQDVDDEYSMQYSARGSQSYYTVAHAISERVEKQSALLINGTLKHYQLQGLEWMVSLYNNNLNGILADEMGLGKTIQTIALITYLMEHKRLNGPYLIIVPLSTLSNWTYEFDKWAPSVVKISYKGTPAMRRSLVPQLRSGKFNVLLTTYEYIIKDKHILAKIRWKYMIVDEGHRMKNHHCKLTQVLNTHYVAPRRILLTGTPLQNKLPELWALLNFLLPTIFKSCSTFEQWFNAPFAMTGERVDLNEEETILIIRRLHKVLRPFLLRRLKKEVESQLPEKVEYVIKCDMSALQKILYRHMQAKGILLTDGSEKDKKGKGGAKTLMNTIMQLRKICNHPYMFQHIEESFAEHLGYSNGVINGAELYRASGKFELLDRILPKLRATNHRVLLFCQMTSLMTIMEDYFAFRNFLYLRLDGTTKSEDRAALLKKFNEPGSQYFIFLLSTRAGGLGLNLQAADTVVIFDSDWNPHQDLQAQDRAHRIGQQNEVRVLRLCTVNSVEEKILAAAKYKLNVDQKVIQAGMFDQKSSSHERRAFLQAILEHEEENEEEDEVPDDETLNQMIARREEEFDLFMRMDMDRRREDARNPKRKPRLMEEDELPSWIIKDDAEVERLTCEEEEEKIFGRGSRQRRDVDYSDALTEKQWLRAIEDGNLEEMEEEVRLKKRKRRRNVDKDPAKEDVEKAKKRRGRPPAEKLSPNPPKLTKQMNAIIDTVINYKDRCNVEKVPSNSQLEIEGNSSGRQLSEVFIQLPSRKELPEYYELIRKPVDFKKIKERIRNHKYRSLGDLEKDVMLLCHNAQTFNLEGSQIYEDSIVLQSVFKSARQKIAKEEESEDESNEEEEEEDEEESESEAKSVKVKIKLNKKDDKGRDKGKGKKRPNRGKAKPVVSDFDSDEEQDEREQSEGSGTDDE
How it was run: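 Luminescence from reconstituted NanoBiT luciferase in lysed HeLa HiBiT-BRM cells served as the measure of remaining BRM after 24 h treatment. Compounds were tested from 30 μM final downward in 3-fold steps. DMSO and 2 μM of a standard BRM/BRG1 degrader defined the scale limits.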

For `Cc1ncsc1-c1ccc(C(C)NC(=O)C2CC(O)CN2C(=O)C(c2cc(OCCN3CC4C(C3)C4c3cc4cc(-c5cc(F)cc(F)c5O)nnc4[nH]3)no2)C(C)C)cc1` [Compound 141, (2S,4R)-1-((R)-2-(3-(2-((1R,5S,6R)-6-(3-(3,5-difluoro-2-hydroxyphenyl)-7H-pyrrolo[2,3-c]pyridazin-6-yl)-3-azabicyclo[3.1.0]hexan-3-yl)ethoxy)isoxazol-5-yl)-3-methylbutanoyl)-4-hydroxy-N-((S)-1-(4-(4-methylthiazol-5-yl)phenyl)ethyl)pyrrolidine-2-carboxamide], the Dmax [1] was < 50%, the “BRM HiBit Degradation Maximum (%)” value (HiBit-BRM fusion protein) was “A (“A” indicates maximum degradation ≥ 75%)” and the DC50 (HiBit-BRM fusion protein) was > 10 nM.

`Cc1ncsc1-c1ccc([C@H](C)NC(=O)[C@@H]2C[C@@H](O)CN2C(=O)[C@@H](c2cc(OCCCN[C@H]3CCc4[nH]c5nnc(-c6ccccc6O)cc5c4C3)no2)C(C)C)cc1` [Compound 143, (2S,4R)-4-hydroxy-1-((R)-2-(3-(3-(((S)-3-(2-hydroxyphenyl)-6,7,8,9-tetrahydro-5H-pyridazino[3,4-b]indol-6-yl)amino)propoxy)isoxazol-5-yl)-3-methylbutanoyl)-N-((S)-1-(4-(4-methylthiazol-5-yl)phenyl)ethyl)pyrrolidine-2-carboxamide] was tested, and the Dmax [1] was < 50%, the “BRM HiBit Degradation Maximum (%)” value (HiBit-BRM fusion protein) was “A (“A” indicates maximum degradation ≥ 75%)” and the DC50 (HiBit-BRM fusion protein) was > 100 nM.

With `Cc1ncsc1-c1ccc([C@H](C)NC(=O)[C@@H]2C[C@@H](O)CN2C(=O)[C@@H](c2cc(N3CCC(C(=O)N[C@H]4CCc5[nH]c6nnc(-c7ccccc7O)cc6c5C4)CC3)no2)C(C)C)cc1` [Compound 144, 1-(5-((R)-1-((2S,4R)-4-hydroxy-2-(((S)-1-(4-(4-methylthiazol-5-yl)phenyl)ethyl)carbamoyl)pyrrolidin-1-yl)-3-methyl-1-oxobutan-2-yl)isoxazol-3-yl)-N-((S)-3-(2-hydroxyphenyl)-6,7,8,9-tetrahydro-5H-pyridazino[3,4-b]indol-6-yl)piperidine-4-carboxamide] the Dmax [1] was > 50%, the DC50 [1] was > 100 nM and the “BRM HiBit Degradation Maximum (%)” value (HiBit-BRM fusion protein) was “A (“A” indicates maximum degradation ≥ 75%)”. The DC50 (HiBit-BRM fusion protein) was > 10 nM.

In the case of `Cc1ncsc1-c1ccc([C@H](C)NC(=O)[C@@H]2C[C@@H](O)CN2C(=O)[C@@H](c2cc(OCC(=O)N[C@@H]3CCc4[nH]c5nnc(-c6ccccc6O)cc5c4C3)no2)C(C)C)cc1` [Compound 150, (2S,4R)-4-hydroxy-1-((R)-2-(3-(2-(((R)-3-(2-hydroxyphenyl)-6,7,8,9-tetrahydro-5H-pyridazino[3,4-b]indol-6-yl)amino)-2-oxoethoxy)isoxazol-5-yl)-3-methylbutanoyl)-N-((S)-1-(4-(4-methylthiazol-5-yl)phenyl)ethyl)pyrrolidine-2-carboxamide], the Dmax [1] is reported as > 50%, the DC50 [1] is reported as > 100 nM and the “BRM HiBit Degradation Maximum (%)” value (HiBit-BRM fusion protein) is reported as “A (“A” indicates maximum degradation ≥ 75%)”. The DC50 (HiBit-BRM fusion protein) was > 10 nM.

In the case of `Cc1ncsc1-c1ccc([C@H](C)NC(=O)[C@@H]2C[C@@H](O)CN2C(=O)[C@@H](c2cc(OCCN(C)[C@@H]3CCc4[nH]c5nnc(-c6ccccc6O)cc5c4C3)no2)C(C)C)cc1` [Compound 156, (2S,4R)-4-hydroxy-1-((R)-2-(3-(2-(((R)-3-(2-hydroxyphenyl)-6,7,8,9-tetrahydro-5H-pyridazino[3,4-b]indol-6-yl)(methyl)amino)ethoxy)isoxazol-5-yl)-3-methylbutanoyl)-N-((S)-1-(4-(4-methylthiazol-5-yl)phenyl)ethyl)pyrrolidine-2-carboxamide], the Dmax [1] is reported as < 50%, the “BRM HiBit Degradation Maximum (%)” value (HiBit-BRM fusion protein) is reported as “A (“A” indicates maximum degradation ≥ 75%)” and the DC50 (HiBit-BRM fusion protein) is reported as > 10 nM.

With `Cc1ncsc1-c1ccc([C@H](C)NC(=O)[C@@H]2C[C@@H](O)CN2C(=O)[C@@H](c2cc(N3CCC(CN[C@H]4CCc5[nH]c6nnc(-c7ccccc7O)cc6c5C4)CC3)no2)C(C)C)cc1` [Compound 159, (2S,4R)-4-hydroxy-1-((R)-2-(3-(4-((((S)-3-(2-hydroxyphenyl)-6,7,8,9-tetrahydro-5H-pyridazino[3,4-b]indol-6-yl)amino)methyl)piperidin-1-yl)isoxazol-5-yl)-3-methylbutanoyl)-N-((S)-1-(4-(4-methylthiazol-5-yl)phenyl)ethyl)pyrrolidine-2-carboxamide] the Dmax [1] was > 75%, the DC50 [1] was > 100 nM and the “BRM HiBit Degradation Maximum (%)” value (HiBit-BRM fusion protein) was “A (“A” indicates maximum degradation ≥ 75%)”. The DC50 (HiBit-BRM fusion protein) was > 10 nM.

For `Cc1ncsc1-c1ccc(CNC(=O)[C@@H]2C[C@@H](O)CN2C(=O)[C@@H](NC(=O)CCCCC(=O)N[C@@H]2CCc3[nH]c4nnc(-c5ccccc5O)cc4c3C2)C(C)(C)C)cc1` [Compound 170, N1-((S)-1-((2S,4R)-4-hydroxy-2-((4-(4-methylthiazol-5-yl)benzyl)carbamoyl)pyrrolidin-1-yl)-3,3-dimethyl-1-oxobutan-2-yl)-N6-((R)-3-(2-hydroxyphenyl)-6,7,8,9-tetrahydro-5H-pyridazino[3,4-b]indol-6-yl)adipamide], the Dmax [1] was < 50% and the “BRM HiBit Degradation Maximum (%)” value (HiBit-BRM fusion protein) was “C (“C” indicates maximum degradation < 50%)”.

`Cc1ncsc1-c1ccc(CNC(=O)[C@@H]2C[C@@H](O)CN2C(=O)[C@@H](NC(=O)CCC(=O)N[C@@H]2CCc3[nH]c4nnc(-c5ccccc5O)cc4c3C2)C(C)(C)C)cc1` [Compound 171, N1-((S)-1-((2S,4R)-4-hydroxy-2-((4-(4-methylthiazol-5-yl)benzyl)carbamoyl)pyrrolidin-1-yl)-3,3-dimethyl-1-oxobutan-2-yl)-N4-((R)-3-(2-hydroxyphenyl)-6,7,8,9-tetrahydro-5H-pyridazino[3,4-b]indol-6-yl)succinamide] was tested, and the Dmax [1] was < 50% and the “BRM HiBit Degradation Maximum (%)” value (HiBit-BRM fusion protein) was “C (“C” indicates maximum degradation < 50%)”.

For `Cc1ncsc1-c1ccc(CNC(=O)[C@@H]2C[C@@H](O)CN2C(=O)[C@@H](NC(=O)CCCC(=O)N[C@@H]2CCc3[nH]c4nnc(-c5ccccc5O)cc4c3C2)C(C)(C)C)cc1` [Compound 180, N1-((S)-1-((2S,4R)-4-hydroxy-2-((4-(4-methylthiazol-5-yl)benzyl)carbamoyl)pyrrolidin-1-yl)-3,3-dimethyl-1-oxobutan-2-yl)-N5-((R)-3-(2-hydroxyphenyl)-6,7,8,9-tetrahydro-5H-pyridazino[3,4-b]indol-6-yl)glutaramide], the Dmax [1] was < 50% and the “BRM HiBit Degradation Maximum (%)” value (HiBit-BRM fusion protein) was “C (“C” indicates maximum degradation < 50%)”.

`Cc1ncsc1-c1ccc([C@H](C)NC(=O)[C@@H]2C[C@@H](O)CN2C(=O)[C@@H](c2cc(OCCN[C@@H]3CCc4[nH]c5nnc(-c6ccccc6O)cc5c4C3)no2)C(C)C)cc1` [Compound 181, (2S,4R)-4-hydroxy-1-((R)-2-(3-(2-(((R)-3-(2-hydroxyphenyl)-6,7,8,9-tetrahydro-5H-pyridazino[3,4-b]indol-6-yl)amino)ethoxy)isoxazol-5-yl)-3-methylbutanoyl)-N-((S)-1-(4-(4-methylthiazol-5-yl)phenyl)ethyl)pyrrolidine-2-carboxamide] was tested, and the Dmax [1] was < 50%, the “BRM HiBit Degradation Maximum (%)” value (HiBit-BRM fusion protein) was “A (“A” indicates maximum degradation ≥ 75%)” and the DC50 (HiBit-BRM fusion protein) was > 100 nM.

With `Cc1ncsc1-c1ccc(C(C)NC(=O)C2CC(O)CN2C(=O)C(c2cc(OCCN3CC4C(C3)C4c3c(C)[nH]c4nnc(-c5ccccc5O)cc34)no2)C(C)C)cc1` [Compound 255, (2S,4R)-4-hydroxy-1-((R)-2-(3-(2-((1R,5S,6S)-6-(3-(2-hydroxyphenyl)-6-methyl-7H-pyrrolo[2,3-c]pyridazin-5-yl)-3-azabicyclo[3.1.0]hexan-3-yl)ethoxy)isoxazol-5-yl)-3-methylbutanoyl)-N-((S)-1-(4-(4-methylthiazol-5-yl)phenyl)ethyl)pyrrolidine-2-carboxamide] the Dmax [1] was < 50%, the DC50 [1] was > 1000 nM and the “BRM HiBit Degradation Maximum (%)” value (HiBit-BRM fusion protein) was “A (“A” indicates maximum degradation ≥ 75%)”. For the same compound, the DC50 (HiBit-BRM fusion protein) was > 10 nM.

In the case of `Cc1ncsc1-c1ccc([C@H](C)NC(=O)[C@@H]2C[C@@H](O)CN2C(=O)[C@@H](c2cc(OCCN3C[C@@H]4[C@H](C3)[C@H]4c3[nH]c4nnc(-c5ccccc5O)cc4c3C)no2)C(C)C)cc1` [Compound 272, (2S,4R)-4-hydroxy-1-((R)-2-(3-(2-((1R,5S,6R)-6-(3-(2-hydroxyphenyl)-5-methyl-7H-pyrrolo[2,3-c]pyridazin-6-yl)-3-azabicyclo[3.1.0]hexan-3-yl)ethoxy)isoxazol-5-yl)-3-methylbutanoyl)-N-((S)-1-(4-(4-methylthiazol-5-yl)phenyl)ethyl)pyrrolidine-2-carboxamide], the Dmax [1] is reported as > 75%, the DC50 [1] is reported as > 10 nM and the “BRM HiBit Degradation Maximum (%)” value (HiBit-BRM fusion protein) is reported as “A (“A” indicates maximum degradation ≥ 75%)”. For the same compound, the DC50 (HiBit-BRM fusion protein) was < 10 nM.

With `Cc1ncsc1-c1ccc([C@H](C)NC(=O)[C@@H]2C[C@@H](O)CN2C(=O)[C@H](c2cc([C@H]3CC[C@@H](c4cnc(N5CCC(c6c[nH]c7nnc(-c8ccccc8O)cc67)CC5)nc4)CC3)no2)C(C)C)cc1` [Compound 309, (2S,4R)-4-hydroxy-N-[(1S)-1-[4-(4-methyl-1,3-thiazol-5-yl)phenyl]ethyl]-1-[(2S)-3-methyl-2-{3-[(1s,4s)-4-(2-{4-[3-(2-hydroxyphenyl)-7H-pyrrolo[2,3-c]pyridazin-5-yl]piperidin-1-yl}pyrimidin-5-yl)cyclohexyl]-1,2-oxazol-5-yl}butanoyl]pyrrolidine-2-carboxamide] the Dmax [1] was < 50%, the “BRM HiBit Degradation Maximum (%)” value (HiBit-BRM fusion protein) was “B (“B” indicates maximum degradation ≥ 50%)” and the DC50 (HiBit-BRM fusion protein) was > 100 nM.
